This passage reports activation results from patent EP2999467B1, “USE OF A COMBINATION OF TWO COMPOUNDS FOR THE TREATMENT AND/OR PREVENTION OF BONE DISORDERS” (Institut National de la Recherche Agronomique (INRA), priority 2013, dated 2014).

The structures appear in SMILES notation. Read-outs that look alike come from different tables or passages of the source.

Format in all cases: cell-based, rats Wistar
The subject of test [1] is préostéoblastes primaires. Description: Mineralisation test (alizarin red staining of mineralised nodules). Particulars: Rattus norvegicus, 408 h, 17 days of culture, read-out: minéralisation (nodules minéralisés) par rapport à la condition « AA+βGP seuls ». An excerpt: (§1) Les préostéoblastes primaires ont été isolés à partir de la calotte crânienne de rats Wistar nouveaux-nés par digestion enzymatique comme précédemment décrit [Declercq, H., Van den Vreken, N., De Maeyer, E., Verbeeck, R., Schacht, E., De Ridder, L., and Cornelissen, M. (2004). Isolation, proliferation and differentiation of osteoblastic cells to study cell/biomaterial interactions: comparison of different isolation techniques and source. Biomaterials 25, 757-68.]. Les précurseurs d'ostéoclastes RAW264.7 ont été obtenus auprès de l'ATCC (Manassas, VA, USA). Les préostéoblastes et les RAW264.7 ont été cultivés dans du milieu α-MEM (Invitrogen, Carlsbad, CA, USA) supplémenté avec 10% de SVF décomplémenté et de 100 unités/ml de pénicilline-streptomycine.
Les préostéoblastes primaires ont été ensemencés à 1,5 * 10^5 cellules par puit dans des plaques 12 puits traitées au collagène. Trente-six heures plus tard, les cellules ont été prétraitées avec du DMSO comme témoin ou de la fisétine (1 à 5 µM) pendant 12 heures, puis induites à se différentier avec 25 µg/ml d'acide ascorbique et 5 mM de bêta-glycérophosphate en présence de DMSO ou de fisétine (1 à 5 µM). Après 17 jours de culture avec un changement des milieux tous les 2 jours, les cellules ont été fixées avec de l'éthanol à 70% et les dépôts de calcium ont été colorés avec une solution à 40 mM d'alizarine rouge (pH 4,2). La zone et l'intensité des nodules ont été quantifiées en utilisant le logiciel ImageJ (http://rsb.info.nih.gov/ij/).

Test [2] concerns préostéoblastes primaires. Description: ALP activity measurement in differentiating osteoblasts. Particulars: Rattus norvegicus, Osteoblast, read-out: activité ALP par rapport à la condition « AA+βGP seuls ».
Source text: as §1
Les préostéoblastes primaires ont été ensemencés à 3500 cellules par puits dans des plaques 96 puits traitées au collagène. Trente-six heures plus tard, les cellules ont été prétraitées avec du DMSO comme témoin ou de la fisétine (1 à 5 µM) pendant 12 heures, puis induites à se différentier avec 25 µg/ml d'acide ascorbique et 5 mM de bêta-glycérophosphate en présence de DMSO ou de fisétine (1 à 5 µM). L'activité enzymatique ALP a été mesurée en cinétique après 0, 5, 7 et 12 jours de traitement avec un changement de milieux tous les 2 jours. Les cellules ont été lysées par des cycles de gel-dégel et les lysats ont subi une homogénéisation dans 200 µl de tampon chlorure de magnésium hexahydrate, di-éthanoamine à un pH de 9,8. Les lysats cellulaires (10 µl) ont été ajoutés à 200 µl de solution de p-nitrophényl phosphate (16,2 mM) et l'absorbance a été mesurée en utilisant un lecteur de microplaques à 405 nm toutes les 90 seconds pendant 30min. Pour chaque échantillon, la concentration de protéines a été analysée pour exprimer les résultats sous forme de µmol de p-nitrophenol/heure/mg de protéines.

The next test deals with phosphatase alcaline. Put plainly: Quantitative RT-PCR, osteoblast differentiation marker: alkaline phosphatase. The following applies: Rattus norvegicus; for activation at 5 µM: AA+βGP+Fisétine 5µM.
Source text: as §1
(§2) L'extraction des ARN totaux (cellules et fémurs) a été effectuée en utilisant le réactif TRIzol, la transcription inverse (RT) a été réalisée à l'aide du kit de synthèse d'ADNc Dynamo (Thermo Scientific, Waltham, MA, USA) et l'analyse PCR en temps réel a été réalisée avec le Mastercycler ep Realplex2 (Eppendorf, Hambourg, Allemagne). Toutes les valeurs ont été normalisées par la GAPDH. Les séquences des oligos utilisés sont : ALP F 5'-GGCCAGCTACACCACAACA-3' / ALP R 5'-[…] -3' / OCN F 5'-AGACTCCGGCGCTACCTT -3' / OCN R 5'-[…]-3'/ COL1 F 5'-[…]-3' / COL1 R 5'-[…]-3' / GAPDH F 5'-[…]-3' / GAPDH R 5'-[…]-3'

A further test has as its system collagène de type 1. Description: Quantitative RT-PCR, osteoblast differentiation marker: type 1 collagen. Particulars: Rattus norvegicus; for activation at 5 µM: AA+βGP+Fisétine 5µM.
Source text: as §1, §2

For `O=c1c(O)c(-c2ccc(O)c(O)c2)oc2cc(O)ccc12` [Fisétine, 3,3',4',7-tétrahydroxyflavone], the activation at 1 µM in test [1] (AA+βGP+Fisétine 1µM) is 62%; in test [2] (AA+βGP+Fisétine 1 µM), 32%; with phosphatase alcaline (168 h, AA+βGP+Fisétine 1 µM, J7, read-out: expression de la phosphatase alcaline par rapport à la condition « AA+βGP seuls »), 84%; in the test with phosphatase alcaline (336 h, AA+βGP+Fisétine 1µM, J14, read-out: expression de la phosphatase alcaline par rapport à la condition « AA+βGP seuls »), 37%; in the test on collagène de type 1 (168 h, AA+βGP+Fisétine 1 µM, J7, read-out: expression du collagène de type 1 par rapport à la condition « AA+βGP seuls »), 34%; in the test on collagène de type 1 (336 h, AA+βGP+Fisétine 1µM, J14, read-out: expression du collagène de type 1 par rapport à la condition « AA+βGP seuls »), 60%. The activation at 5 µM stood at 169% in test [1] (AA+βGP+Fisétine 5µM); 87% in test [2] (AA+βGP+Fisétine 5µM); 146% with phosphatase alcaline (168 h, J7, read-out: expression de la phosphatase alcaline par rapport à la condition « AA+βGP seuls »); 88% in the test on phosphatase alcaline (336 h, J14, read-out: expression de la phosphatase alcaline par rapport à la condition « AA+βGP seuls »); 80% in the test on collagène de type 1 (168 h, J7, read-out: expression du collagène de type 1 par rapport à la condition « AA+βGP seuls »); 138% in the test with collagène de type 1 (336 h, J14, read-out: expression du collagène de type 1 par rapport à la condition « AA+βGP seuls »). Besides, the activation at 2.5 µM was 105% in test [1] (AA+βGP+Fisétine 2,5µM) and 63% in test [2] (AA+βGP+Fisétine 2,5µM).
